Data from the NIST ThermoML archive (doi:10.1016/j.fluid.2006.11.004).
± gives the expanded uncertainty stated by the source.

Test: xn = mol fraction of the nth substance listed
Details: 273.15 K, 111 kPa, Fluid (supercritical or subcritical phases), Flux Response Technology (based on capillary viscometry)

Structure (SMILES)	excess molar volume (x1 = 1) [m3/mol]	excess molar volume (x2 = 0) [m3/mol]	excess molar volume (x2 = 0.0001) [m3/mol]	excess molar volume (x2 = 0.113) [m3/mol]	excess molar volume (x2 = 0.236) [m3/mol]	excess molar volume (x2 = 0.362) [m3/mol]	excess molar volume (x2 = 0.48) [m3/mol]	excess molar volume (x2 = 0.482) [m3/mol]	excess molar volume (x2 = 0.56) [m3/mol]	excess molar volume (x2 = 0.561) [m3/mol]	excess molar volume (x2 = 0.6) [m3/mol]	excess molar volume (x2 = 0.715) [m3/mol]	excess molar volume (x2 = 0.833) [m3/mol]
O=C=O [carbon dioxide] + FC(F)(Cl)Cl	0 ± 1e-07												
FC(F)(Cl)Cl [dichlorodifluoromethane] + O=C=O		0 ± 1e-07	0 ± 1e-07	3.11e-05 ± 4.4e-06	4.65e-05 ± 6.5e-06	5.16e-05 ± 7.2e-06	5.54e-05 ± 7.8e-06	4.91e-05 ± 6.9e-06	5.6e-05 ± 7.8e-06	5.24e-05 ± 7.3e-06	5.03e-05 ± 7e-06	5.03e-05 ± 7e-06	3.21e-05 ± 4.5e-06
